Measured values from patent US9079888B2, “Compounds as histamine H3 receptor ligands” (Suven Life Sciences Limited, priority 2011, dated 2015).
Structures can show the parent of a compound that is named as a salt. Values belong to the compound of their own block, whether it stands above or below them.

Key:
[1] = target: Human or Rat Histamine H3 Receptor; assay: Binding assay for human or rat Histamine H3 receptor ([3H] R-α-methylhistamine displacement); details: radioligand [3H] R-α-methylhistamine 3.0 nM; receptor source rat brain frontal cortex or recombinant human cDNA in CHO cells (table does not say which)
Procedure: The reaction was terminated by rapid vacuum filtration onto the glass fiber filters. Radioactivity trapped onto the filters was determined and compared to the control values in order to ascertain any interactions of the test compound(s) with either cloned human or rat receptor binding site.

rats = assay: Inhibition of Food Intake; format: in vivo; details: rats fasted 18 hours, oral treatment 60 minutes before feed, active dose
Procedure: The anti-obesity properties of compounds of this invention were estimated using this model.
The experiment consisted of 6 days. The rats were adapted to the 18 hours fasting and 6 hours feeding pattern. The animals were housed in a group of three in the cages provided with the fasting grills and was fasted for 18 hours. After 18 hours fasting the rats were separated and placed individually in the cage. Weighed amount of feed was provided to rats for 6 hours and the feed intake at 1 hour, 2 hours, 4 hours and 6 hours was measured.
Again the rats were regrouped and fasted for 18 hours. The above procedure was followed for 5 days. The average cumulative food intake by the rats on the last 3 days was calculated. Animals were randomized on the basis of their previous three days food intake. On the day of experiment the rats were orally treated test compounds or vehicle. After 60 minutes, the feed was provided to the rats and the food intake at 1 hour, 2 hours, 4 hours and 6 hours was measured. The food intake by the rats treated with test compound was compared with the vehicle treated group by using Unpaired Student's t test.

[2] = Rodent Pharmacokinetic Study
Procedure: Male Wistar rats (230-280 grams) obtained from NIN (National Institute of Nutrition, Hyderabad, India) were used as an experimental animal. Three animals were housed in each cage. Animals were kept fasted over night and maintained on a 12 hours light/dark cycle. Three rats were dosed New chemical entity (NCE) orally (3 or 10 mg/kg) and intravenously (1 or 5 mg/kg) on day 0 and day 2.
At each time point blood was collected by jugular vein. Blood was stored at 2-8° C. until analysis. The concentrations of the NCE compound in blood were determined using LC-MS/MS method. Schedule time points: Pre dose 0.08, 0.25, 0.5, 1, 2, 4, 6, 8 and 24 hours after dosing (n=3). The NCE compounds were quantified in blood by partially validated LC-MS/MS method using acetonitrile precipitation technique. […] Study samples were analyzed using calibration samples in the batch and quality control samples spread across the batch.
Pharmacokinetic parameters were calculated by non-compartmental model using software WinNonlin version 5.0.1.

Male Wister rats = assay: Object Recognition Task Model; format: in vivo; details: rat; for Exploration time mean ± S.E.M, Familiar object / Exploration time mean ± S.E.M, Novel object: choice trial T2 24 h after T1
Procedure: The cognition enhancing properties of compounds of this invention were estimated by using this model.
Male Wister rats (230-280 grams) obtained from N. I. N. (National Institute of Nutrition, Hyderabad, India) was used as experimental animals. Four animals were housed in each cage. Animals were kept on 20% food deprivation before one day and given water ad libitum throughout the experiment and maintained on a 12 hours light/dark cycle. Also the rats were habituated to individual arenas for 1 hour in the absence of any objects.
One group of 12 rats received vehicle (1 mL/Kg) orally and another set of animals received compound of the formula (I) either orally or i.p., before one hour of the familiar (T1) and choice trial (T2).
The experiment was carried out in a 50×50×50 cm open field made up of acrylic. In the familiarization phase, (T1), the rats were placed individually in the open field for 3 minutes, in which two identical objects (plastic bottles, 12.5 cm height×5.5 cm diameter) covered in yellow masking tape alone (a1 and a2) were positioned in two adjacent corners, 10 cms from the walls. After 24 hours of the (T1) trial for long-term memory test, the same rats were placed in the same arena as they were placed in T1 trial. Choice phase (T2) rats were allowed to explore the open field for 3 minutes in presence of one familiar object (a3) and one novel object (b) (Amber color glass bottle, 12 cm high and 5 cm in diameter). Familiar objects presented similar textures, colors and sizes. During the T1 and T2 trial, explorations of each object (defined as sniffing, licking, chewing or having moving vibrissae whilst directing the nose towards the object at a distance of less than 1 cm) were recorded separately by stopwatch. Sitting on an object was not regarded as exploratory activity, however, it was rarely observed.
T1 is the total time spent exploring the familiar objects (a1+a2).
T2 is the total time spent exploring the familiar object and novel object (a3+b).
The object recognition test was performed as described by Ennaceur, A., Delacour, J., 1988, A new one-trial test for neurobiological studies of memory in rats—Behavioural data, Behay. Brain Res., 31, 47-59.

[3] = Rodent Brain Penetration Study; format: in vivo, Male Wister rats; details: brain / whole blood; Wistar/Male rat, Per Oral, 3 mg/kg, vehicle water; read-out: Brain Penetration Ratio (Cbrain/Cblood)
Procedure: Three animals were housed in each cage. Animals were given water and food ad libitum throughout the experiment, and maintained on a 12 hours light/dark cycle.
New chemical entity (NCE) was dissolved in suitable vehicle and administered orally (3 or 10 mg/kg). […] Blood and brain tissue were collected and brain was homogenized to yield 20% w/v. Blood was stored at 2-8° C. and brain homogenate was frozen at −20° C. until analysis. The concentrations of NCE in blood and brain were quantified using LC-MS/MS method.
Extents of brain-blood ratio were calculated (Cbrian/Cblood)

[4] = male, Wistar, rat, whole blood, iv, 1 mg/kg
[5] = male, Wistar, rat, whole blood, po, 3 mg/kg
[6] = Wistar/Male rat, Intravenous, 1 mg/kg, vehicle water, blood
[7] = Wistar/Male rat, Per Oral, 3 mg/kg, vehicle water, blood
[8] = Wistar/Male rat, per oral 3 mg/kg vs intravenous 1 mg/kg
[9] = male, Wistar, rat, whole blood, po, 10 mg/kg

Structure (SMILES): Cc1cc(OC2CCN(C3CCCC3)CC2)ccc1NC(=O)CN1CCC[C@H]1C [Example 15, N-[4-(1-Cyclopentylpiperidin-4-yloxy)-2-methylphenyl]-2-(R-2-methylpyrrolidin-1-yl) acetamide]
Ki [1]: 4 nM

Structure (SMILES): Cc1cc(OC2CCN(C3CCC3)CC2)ccc1NC(=O)CN1CCC[C@H]1C [Example 16, N-[4-(1-Cyclobutylpiperidin-4-yloxy)-2-methylphenyl]-2-(R-2-methylpyrrolidin-1-yl) acetamide]
Ki [1]: 2.4 nM
Inhibition of food intake (rats): ≧30 mg/kg, p.o.

Structure (SMILES): Cc1cc(OC2CCN(C3CCC3)CC2)ccc1NC(=O)CN1CCCCC1 [Example 13, N-[4-(1-Cyclobutylpiperidin-4-yloxy)-2-methylphenyl]-2-(piperidin-1-yl) acetamide]
Ki [1]: 3.3 nM
Inhibition of food intake (rats): 30 mg/kg, p.o.

Structure (SMILES): O=C(CN1CCC(O)CC1)Nc1ccc(OC2CCN(C3CCC3)CC2)cc1 [Example 19, N-[4-(1-Cyclobutylpiperidin-4-yloxy)phenyl]-2-(4-hydroxypiperidin-1-yl) acetamide]
Ki [1]: 6.4 nM
AUC(0-t) [2, 4]: 347 ± 44 ng·h/mL
half-life [2, 4]: 17 ± 4.5 h
AUC(0-t) [2, 5]: 838 ± 96 ng·h/mL
Cmax [2, 5]: 67 ± 11 ng/mL
Tmax [2, 5]: 2.67 ± 1.15 h
bioavailability [2, 5]: 81 ± 12%
half-life [2, 5]: 12.8 ± 2.48 h

Structure (SMILES): CN(C(=O)CN1CCOCC1)c1ccc(OC2CCN(C3CCC3)CC2)cc1 [Example 14, N-[4-(1-Cyclobutylpiperidin-4-yloxy)phenyl]-N-methyl-2-(morpholin-4-yl) acetamide]
Ki [1]: 4.9 nM

Structure (SMILES): Cc1cc(OC2CCN(C(C)C)CC2)ccc1NC(=O)CN1CCCC1 [Example 10, N-[4-(1-Isopropyl-piperidin-4-yloxy)-2-methylphenyl]-2-(pyrrolidin-1-yl) acetamide]
Ki [1]: 8.4 nM

Structure (SMILES): CC(C)N1CCC(Oc2ccc(NC(=O)CN3CCOCC3)cc2)CC1 [Example 22, N-[4-(1-Isopropylpiperidin-4-yloxy)-phenyl]-2-(morpholin-4-yl) acetamide]
Ki [1]: 8.3 nM
Inhibition of food intake (rats): 60 mg/kg, p.o.
Inference (Male Wister rats; 1 mg/kg p.o.): Active
Exploration time mean ± S.E.M, Familiar object (Male Wister rats; 1 mg/kg p.o.): 7.12 ± 1.51 s
Exploration time mean ± S.E.M, Novel object (Male Wister rats; 1 mg/kg p.o.): 16.50 ± 2.37 s
AUCt [2, 6]: 340 ± 60 ng·h/mL
AUCt [2, 7]: 850 ± 61 ng·h/mL
Tmax [2, 7]: 0.42 ± 0.14 h
bioavailability [2, 8]: 85 ± 12%
Cmax [2, 5]: 376 ± 27 ng/mL

Structure (SMILES): O=C(CNc1ccc(OC2CCN(C3CCC3)CC2)cc1)N1CCOCC1 [Example 2, 2-[4-(1-Cyclobutylpiperidin-4-yloxy)phenylamino]-1-(morpholin-4-yl)ethanone hydrochloride]
Ki [1]: 6.4 nM

Structure (SMILES): O=C(CN1CCCCC1)Nc1ccc(OC2CCN(C3CCC3)CC2)cc1C(F)(F)F [Example 7, N-[4-(1-Cyclobutylpiperidin-4-yloxy)-2-trifluoromethylphenyl]-2-(piperidin-1-yl) acetamide]
Ki [1]: 14.8 nM

Structure (SMILES): Cc1cc(OC2CCN(C3CCCC3)CC2)ccc1NC(=O)CN1CCCCC1 [Example 12, N-[4-(1-Cyclopentylpiperidin-4-yloxy)-2-methylphenyl]-2-(piperidin-1-yl) acetamide]
Ki [1]: 7.5 nM

Structure (SMILES): Cc1cc(OC2CCN(C3CCC3)CC2)ccc1NC(=O)CN1CCCC1 [Example 11, N-[4-(1-Cyclobutylpiperidin-4-yloxy)-2-methylphenyl]-2-(pyrrolidin-1-yl) acetamide]
Ki [1]: 1.9 nM
AUC(0-t) ([2]; male, Wistar, rat, whole blood, iv, 5 mg/kg): 3340 ± 656 ng·h/mL
AUC(0-t) [2, 9]: 1350 ± 569 ng·h/mL
Cmax [2, 9]: 122 ± 55 ng/mL
Tmax [2, 9]: 4 ± 1.76 h
bioavailability [2, 9]: 20 ± 9%

Now from value to compound, other results behind:

Ki [1]: 5.39 nM
Structure (SMILES): CC(=O)N1CCN(CC(=O)Nc2ccc(OC3CCN(C4CCC4)CC3)cc2)CC1 [Example 39, N-[4-(1-Cyclobutylpiperidin-4-yloxy)phenyl]-2-(1-acetylpiperazin-4-yl) acetamide]

Ki [1]: 6.6 nM
Structure (SMILES): CC(=O)N(CCN1CCOCC1)c1ccc(OC2CCN(C3CC3)CC2)cc1 [Example 38, N-[4-(1-Cyclopropylpiperidin-4-yloxy)phenyl]-N-[2-(morpholin-4-yl)ethyl] acetamide L(+) tartarate]

Ki [1]: 1 nM
Structure (SMILES): CC(C)N1CCCN(CC(=O)Nc2ccc(OC3CCN(C4CCC4)CC3)cc2)CC1 [Example 24, N-[4-(1-Cyclobutylpiperidin-4-yloxy)phenyl]-2-(4-isopropyl[1,4]diazepan-1-yl) acetamide]

Ki [1]: 9.73 nM
Kp [3]: 1.24 ± 0.18
AUC(0-t) [2, 4]: 68 ± 2 ng·h/mL
half-life [2, 4]: 3.3 ± 0.42 h
AUC(0-t) [2, 5]: 64 ± 16 ng·h/mL
Cmax [2, 5]: 27 ± 11 ng/mL
Tmax [2, 5]: 0.5 h
bioavailability [2, 5]: 32 ± 8%
half-life [2, 5]: 3.59 ± 0.43 h
Structure (SMILES): CC(=O)N(CCN1CCOCC1)c1ccc(OC2CCN(C3CCC3)CC2)cc1F [Example 37, N-[4-(1-Cyclobutylpiperidin-4-yloxy)-2-fluorophenyl]-N-[2-(morpholin-4-yl)-ethyl] acetamide]
Inference (Male Wister rats; 3 mg/kg p.o.): Active
Exploration time mean ± S.E.M, Familiar object (Male Wister rats; 3 mg/kg p.o.): 5.53 ± 1.67 s
Exploration time mean ± S.E.M, Novel object (Male Wister rats; 3 mg/kg p.o.): 14.18 ± 2.04 s

Ki [1]: 1.1 nM
Structure (SMILES): O=C(CN1CCCC1)Nc1ccc(OC2CCN(C3CCC3)CC2)cc1 [Example 21, N-[4-(1-Cyclobutylpiperidin-4-yloxy)-phenyl]-2-(pyrrolidin-1-yl) acetamide]
Inhibition of food intake (rats): ≧30 mg/kg, p.o.

Ki [1]: 3.8 nM
Structure (SMILES): O=C(CN1CCCC1)Nc1ccc(OC2CCN(C3CCCC3)CC2)cc1 [Example 28, N-[4-(1-Cyclopentylpiperidin-4-yloxy)phenyl]-2-(pyrrolidin-1-yl) acetamide dihydrochloride]

Ki [1]: 6.7 nM
Structure (SMILES): O=C(CCN1CCOCC1)Nc1ccc(OC2CCN(C3CCC3)CC2)cc1 [Example 26, N-[4-(1-Cyclobutylpiperidin-4-yloxy)phenyl]-3-(morpholin-4-yl) propionamide]

Ki [1]: 4.1 nM
Structure (SMILES): O=C(CN1CCCCC1)Nc1ccc(OC2CCN(C3CCCC3)CC2)cc1 [Example 27, N-[4-(1-Cyclopentylpiperidin-4-yloxy)phenyl]-2-(piperidin-1-yl) acetamide dihydrochloride]

Ki [1]: 4.05 nM
Structure (SMILES): O=C(CN1CCOC(CO)C1)Nc1ccc(OC2CCN(C3CCC3)CC2)cc1 (stereo not drawn) [Example 25, N-[4-(1-Cyclobutylpiperidin-4-yloxy)phenyl]-2-(2-hydroxymethylmorpholin-4-yl) acetamide]

AUCt [2, 6]: 338 ± 29 ng·h/mL
T1/2 [2, 6]: 1.13 ± 0.02 h
AUCt [2, 7]: 556 ± 111 ng·h/mL
Cmax [2, 7]: 389 ± 29 ng/mL
T1/2 [2, 7]: 1.23 ± 0.53 h
Tmax [2, 7]: 0.50 ± 0.00 h
bioavailability [2, 8]: 55 ± 10%
Structure (SMILES): O=C(CN1CCOCC1)Nc1ccc(OC2CCN(C3CC3)CC2)cc1 [Example 23, N-[4-(1-Cyclopropylpiperidin-4-yloxy)phenyl]-2-(morpholin-4-yl) acetamide]

Ki [1]: 1.6 nM
Structure (SMILES): O=C(CN1CCCCC1)Nc1ccc(OC2CCN(C3CCC3)CC2)cc1 [Example 29, N-[4-(1-Cyclobutylpiperidin-4-yloxy)phenyl]-2-(piperidin-1-yl) acetamide]
